Strand notation (5' to 3'): a small letter for the sugar, then the base; units joined by * are phosphorothioate-linked, units joined directly phosphodiester-linked; [ ] holds rarer units or linkages, { } end groups; capitals alone tell only the bases. e = 2'-O-(2-methoxyethyl) (MOE); [5mC] = 5-methylcytosine; d = 2'-deoxy (DNA)
Test system: human SMAD7 mRNA
Experiment: Antisense inhibition of human SMAD7 mRNA expression in Hep3B cells by 5-10-5 MOE gapmers, single concentration, electroporation, RT-PCR (Example 1, Study 1 and 2)
Type: cell-based
Outline: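 Hep3B cells (20,000/well) electroporated with 5-10-5 MOE gapmer at 5,000 nM or 15,000 nM for approximately 24 h. SMAD7 mRNA quantified by real-time PCR with primer probe set RTS5062 and normalized to RIBOGREEN total RNA. Values are percent inhibition relative to untreated controls.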

[1] = Study 2, electroporation with 15,000 nM antisense oligonucleotide, 5-10-5 MOE gapmers targeting SEQ ID NO: 1 and 2
[2] = electroporation with 15,000 nM antisense oligonucleotide (Study 2), 5-10-5 MOE gapmers targeting SEQ ID NO: 1 and 2
[3] = electroporation, 15,000 nM antisense oligonucleotide (Study 2), 5-10-5 MOE gapmers targeting SEQ ID NO: 1 and 2
[4] = electroporation, 15,000 nM, approximately 24 hours, relative to untreated control cells, gapmers targeting SEQ ID NO: 1 and 2
[5] = electroporation, 5,000 nM, approximately 24 hours, relative to untreated control cells, gapmers targeting SEQ ID NO: 1 and 2

“771911 (antisense eA*eT*eG*eG*eT*d[5mC]*d[5mC]*dA*dG*d[5mC]*dA*dG*dA*dG*d[5mC]*eA*eG*eA*eA*eG) [compound 771911]” was tested, and the “% Inhibition” value [1] was 20%.

In the case of “771682 (antisense eT*eG*eT*eT*eA*dT*dT*dT*dG*d[5mC]*dA*dT*dT*dT*dA*eT*eA*eT*eT*eA) [compound 771682]”, the “% inhibition of SMAD7 mRNA expression” value [2] is reported as 18%.

With “771411 (e[5mC]*e[5mC]*eT*eT*e[5mC]*dT*d[5mC]*d[5mC]*d[5mC]*d[5mC]*dG*d[5mC]*dA*dG*d[5mC]*eT*e[5mC]*eG*e[5mC]*e[5mC]; antisense) [compound 771411]” the “% inhibition of SMAD7 mRNA expression” value [3] was 33%.

In the case of “771361 (antisense eA*e[5mC]*eA*eG*e[5mC]*dA*d[5mC]*d[5mC]*dT*dT*dG*dT*d[5mC]*dA*d[5mC]*e[5mC]*e[5mC]*eG*eT*e[5mC]) [compound 771361]”, the “% Inhibition” value [1] is reported as 27%.

With “771905 (antisense eT*eA*eG*eG*e[5mC]*dG*dA*dA*dT*d[5mC]*d[5mC]*d[5mC]*dT*d[5mC]*d[5mC]*e[5mC]*e[5mC]*e[5mC]*eA*eA) [compound 771905]” the “% inhibition of SMAD7 mRNA expression” value [3] was 0%.

In the case of “771694 (antisense e[5mC]*eT*e[5mC]*e[5mC]*e[5mC]*dA*dG*dG*dA*dG*dG*dG*dT*dA*dT*eG*e[5mC]*eA*e[5mC]*eA) [compound 771694]”, the “% Inhibition” value [1] is reported as 0%.

For “771865 (antisense eA*eT*eA*eG*eG*dG*dA*dT*dA*dT*d[5mC]*dT*d[5mC]*dA*dT*e[5mC]*eA*eA*eT*eA) [compound 771865]”, the “% inhibition of SMAD7 mRNA expression” value [3] was 38%.

For “771426 (e[5mC]*eA*e[5mC]*e[5mC]*eG*d[5mC]*d[5mC]*dT*dT*dG*d[5mC]*d[5mC]*d[5mC]*dA*dG*eG*e[5mC]*eA*eG*e[5mC]; antisense) [compound 771426]”, the “% inhibition of SMAD7 mRNA expression” value [3] was 28%.

For “771714 (antisense eT*e[5mC]*eT*eG*eG*dA*d[5mC]*dT*dA*dA*dA*dG*d[5mC]*dT*dT*e[5mC]*e[5mC]*eA*e[5mC]*eG) [compound 771714]”, the “% inhibition of SMAD7 mRNA expression” value [3] was 44%.

For “771746 (antisense eA*eA*eG*e[5mC]*e[5mC]*dG*dG*dG*d[5mC]*dA*dT*d[5mC]*dT*d[5mC]*dA*eG*eA*eG*e[5mC]*eA) [compound 771746]”, the “% inhibition of SMAD7 mRNA expression” value [3] was 22%.

“771887 (antisense e[5mC]*eA*eG*e[5mC]*e[5mC]*dA*d[5mC]*dT*dG*d[5mC]*dT*dG*dT*d[5mC]*dT*eG*eA*eG*eG*eA) [compound 771887]” was tested, and the “% Inhibition” value [1] was 14%.

For “771687 (antisense e[5mC]*eT*eT*eG*eT*dG*dT*dT*dT*dA*dT*d[5mC]*dT*dT*dT*eT*eT*eT*eA*eA) [compound 771687]”, the “% inhibition of SMAD7 mRNA expression” value [1] was 13%.

“771933 (antisense eA*eT*e[5mC]*eG*eA*dG*dG*dT*dG*d[5mC]*d[5mC]*d[5mC]*d[5mC]*d[5mC]*dA*eT*eG*e[5mC]*e[5mC]*eA) [compound 771933]” was tested, and the “% inhibition of SMAD7 mRNA expression” value [4] was 31%.

In the case of “771884 (antisense e[5mC]*eT*eG*e[5mC]*e[5mC]*dA*d[5mC]*d[5mC]*d[5mC]*dT*dG*dA*dG*dA*dG*eT*eG*eT*eA*eG) [compound 771884]”, the “% Inhibition” value [1] is reported as 3%.

In the case of “771666 (antisense eA*e[5mC]*eT*eA*e[5mC]*dA*dA*dT*dG*d[5mC]*dT*dA*dA*dA*dT*eT*eT*e[5mC]*e[5mC]*eA) [compound 771666]”, the “% inhibition of SMAD7 mRNA expression” value [2] is reported as 39%.

For “771810 (antisense eG*eG*e[5mC]*eA*e[5mC]*dT*dG*d[5mC]*dA*dG*dA*dA*dG*dA*dG*eG*e[5mC]*eG*eG*eG) [compound 771810]”, the “% inhibition of SMAD7 mRNA expression” value [3] was 46%.

For “771703 (antisense eG*eG*eA*eG*eG*dG*dT*dA*dT*dG*d[5mC]*dA*d[5mC]*dA*d[5mC]*eT*e[5mC]*eT*e[5mC]*e[5mC]) [compound 771703]”, the “% Inhibition” value [1] was 31%.

For “771763 (antisense e[5mC]*e[5mC]*e[5mC]*e[5mC]*eG*dT*d[5mC]*d[5mC]*dA*d[5mC]*dG*dG*dA*dA*d[5mC]*eG*eG*eA*eT*e[5mC]) [compound 771763]”, the “% Inhibition” value [1] was 45% and the “% inhibition of SMAD7 mRNA expression” value [5] was 34%.

With “771697 (antisense e[5mC]*eA*e[5mC]*eT*e[5mC]*dT*d[5mC]*d[5mC]*d[5mC]*dA*dG*dG*dA*dG*dG*eG*eT*eA*eT*eG) [compound 771697]” the “% inhibition of SMAD7 mRNA expression” value [3] was 5%.

In the case of “771896 (antisense eG*eG*eG*e[5mC]*e[5mC]*d[5mC]*d[5mC]*d[5mC]*dT*dT*d[5mC]*dT*dG*d[5mC]*d[5mC]*eT*eT*e[5mC]*eA*eT) [compound 771896]”, the “% Inhibition of SMAD7 mRNA” value [2] is reported as 17% and the “% inhibition of SMAD7 mRNA expression” value [3] is reported as 0%.

In the case of “771584 (antisense eA*eG*e[5mC]*e[5mC]*eG*dT*dG*d[5mC]*dT*d[5mC]*d[5mC]*dT*dG*dG*d[5mC]*eA*eG*e[5mC]*eT*eG) [compound 771584]”, the “% Inhibition of SMAD7 mRNA” value [2] is reported as 26% and the “% inhibition of SMAD7 mRNA expression” value [3] is reported as 7%.

“771894 (antisense e[5mC]*eA*eA*eA*eA*dG*dG*dG*dA*dA*dA*dG*dG*dA*dG*eG*eT*eT*eT*eG) [compound 771894]” was tested, and the “% Inhibition” value [1] was 17%.

With “771596 (antisense eG*eA*e[5mC]*eA*eA*dG*dG*dA*dT*dG*dA*dA*dA*dA*dT*eA*eA*eT*eT*eG) [compound 771596]” the “% inhibition of SMAD7 mRNA expression” value [1] was 0%.

For “771802 (antisense e[5mC]*e[5mC]*eT*eT*eG*dA*dG*dA*dT*d[5mC]*d[5mC]*dA*dT*dG*dG*eG*eA*eG*e[5mC]*eA) [compound 771802]”, the “% inhibition of SMAD7 mRNA expression” value [3] was 40%.

With “771886 (antisense eA*eA*e[5mC]*e[5mC]*eA*dG*dG*dT*dT*d[5mC]*d[5mC]*d[5mC]*dA*d[5mC]*dT*eG*eT*eT*eA*e[5mC]) [compound 771886]” the “% Inhibition” value [1] was 0%.

In the case of “771804 (antisense eG*eA*e[5mC]*eA*eG*dA*dT*dG*d[5mC]*d[5mC]*dA*dG*d[5mC]*dA*dA*eG*eG*eA*eT*e[5mC]) [compound 771804]”, the “% Inhibition” value [1] is reported as 17%.

In the case of “771747 (antisense eG*eT*eG*eT*eG*dT*dT*dT*d[5mC]*dA*dA*dA*dG*dG*dA*eA*eA*eA*eG*e[5mC]) [compound 771747]”, the “% Inhibition” value [1] is reported as 10% and the “% inhibition of SMAD7 mRNA expression” value [5] is reported as 2%.

“771853 (antisense eA*eG*e[5mC]*eT*eT*dG*dG*dA*dA*dG*d[5mC]*d[5mC]*dA*dT*d[5mC]*eG*eG*eT*eT*eG) [compound 771853]” was tested, and the “% inhibition of SMAD7 mRNA expression” value [4] was 36%.

With “771811 (antisense eT*eG*e[5mC]*e[5mC]*eT*d[5mC]*dA*dT*dT*d[5mC]*dT*dT*dT*d[5mC]*d[5mC]*eA*eG*eG*eA*e[5mC]) [compound 771811]” the “% Inhibition” value [1] was 50% and the “% inhibition of SMAD7 mRNA expression” value [5] was 48%.

With “771796 (antisense eG*eT*eT*eT*eG*d[5mC]*dG*d[5mC]*dA*d[5mC]*dG*dG*dG*dA*dT*eT*eG*eT*e[5mC]*eT) [compound 771796]” the “% Inhibition” value [1] was 16%.

“771701 (antisense eG*eG*eT*eA*eT*dG*d[5mC]*dA*d[5mC]*dA*d[5mC]*dT*d[5mC]*dT*d[5mC]*e[5mC]*e[5mC]*eA*eG*eG) [compound 771701]” was tested, and the “% inhibition of SMAD7 mRNA expression” value [4] was 34%.

With “771422 (eA*eT*e[5mC]*e[5mC]*eA*dG*d[5mC]*d[5mC]*d[5mC]*dT*dG*d[5mC]*d[5mC]*d[5mC]*dG*eG*eG*e[5mC]*e[5mC]*eG; antisense) [compound 771422]” the “% inhibition of SMAD7 mRNA expression” value [4] was 27%.

In the case of “771949 (antisense eA*eG*eA*eT*e[5mC]*dT*dT*dT*d[5mC]*dA*dA*d[5mC]*dT*dG*dG*eA*eT*eG*eG*eA) [compound 771949]”, the “% inhibition of SMAD7 mRNA expression” value [4] is reported as 26%.

“771424 (e[5mC]*e[5mC]*e[5mC]*eA*eG*dG*d[5mC]*dA*dG*d[5mC]*dA*dT*d[5mC]*d[5mC]*dA*eG*e[5mC]*e[5mC]*e[5mC]*eT; antisense) [compound 771424]” was tested, and the “% Inhibition” value [1] was 36%.

For “771376 (antisense eA*e[5mC]*eG*e[5mC]*eT*d[5mC]*dT*dA*dA*dA*d[5mC]*dA*dG*d[5mC]*dA*eT*eG*eA*eA*eA) [compound 771376]”, the “% inhibition of SMAD7 mRNA expression” value [4] was 17%.

“771513 (antisense eA*eG*e[5mC]*eA*eA*dA*dG*dT*dA*dG*dT*dT*dT*dG*dA*eA*eG*eT*eG*eT) [compound 771513]” was tested, and the “% inhibition of SMAD7 mRNA expression” value [3] was 34%.

In the case of “771600 (antisense eT*eG*eG*e[5mC]*e[5mC]*dA*dA*dA*dA*dA*dA*dG*dA*dA*dA*eG*eA*e[5mC]*eG*e[5mC]) [compound 771600]”, the “% Inhibition of SMAD7 mRNA” value [2] is reported as 11% and the “% inhibition of SMAD7 mRNA expression” value [3] is reported as 0%.

For “771512 (antisense eA*eG*eT*eA*eG*dT*dT*dT*dG*dA*dA*dG*dT*dG*dT*eG*eG*e[5mC]*e[5mC]*eT) [compound 771512]”, the “% Inhibition of SMAD7 mRNA” value [2] was 34% and the “% inhibition of SMAD7 mRNA expression” value [3] was 0%.

In the case of “771839 (antisense e[5mC]*eA*e[5mC]*eA*eG*d[5mC]*dA*d[5mC]*d[5mC]*dG*dT*dT*dA*d[5mC]*dT*eG*eG*eA*e[5mC]*eA) [compound 771839]”, the “% Inhibition” value [1] is reported as 21%.

In the case of “771546 (antisense eT*eA*e[5mC]*e[5mC]*eT*dG*d[5mC]*d[5mC]*d[5mC]*d[5mC]*dT*dT*d[5mC]*dT*dT*e[5mC]*e[5mC]*eA*eA*eA) [compound 771546]”, the “% inhibition of SMAD7 mRNA expression” value [3] is reported as 26%.

— patent US10517889B2, “Modulators of SMAD7 expression” (Ionis Pharmaceuticals, Inc., priority 2017, dated 2019)
